The source of these data is US20150342901A1, “COMPOSITION COMPRISING NATURAL POLYPHENOL COMPOUNDS, AND COMPOSITION FOR ORAL ADMINISTRATION COMPRISING SAME” (SAMSUNG FINE CHEMICALS CO., LTD., priority 2012, published 2015).

Values after ≈ are worked out from the molar mass of the structure shown.

This data set can be described thus: Solubility of poorly water-soluble natural polyphenolic compound (PSNPPC) in water. Type of data set: physicochemical. The note with it: for solubility: PSNPPC alone, solubility = amount (mg) of solute that dissolves in 1 mL of water at 37° C. As for the experimental part: In the present specification. “solubility” refers to an amount (mg) of a solute (PSNPPC) that dissolves in 1 mL of water at 37° C., which is similar to a human body temperature.
Solubility of 3 types of poorly water-soluble natural polyphenolic compounds (PSNPPC) (a product of Naturex SA of France) were measured, and the results thereof are shown in Table 1.

Turning to `COc1cc(/C=C/C(=O)CC(=O)/C=C/c2ccc(O)c(OC)c2)ccc1O` [Curcumin, curcumin], the concentration in solution (solubility) came to 4 µg/mL (≈ 10.9 µM).

In turn, `Oc1ccc(C=Cc2cc(O)cc(O)c2)cc1` [Resveratrol, resveratrol] registered a solubility of 87 µg/mL (≈ 381 µM).

In the case of silymarin, the “Solubility (@37° C.)” value was found to be 0.008.

As a reminder, the solubility is the dissolved amount per volume that the medium holds. Read a low solubility as a poorly soluble substance.
